Measured values: US12049450B2, “Pyridyloxy-carboxylate derivative and preparation method therefor, herbicidal composition, and use” (Qingdao Kingagroot Chemical Compound Co., Ltd., priority 2018, dated 2024)

Assays:
Format in all cases: in vivo
Cyperus iria = test: Post-emergence test experiment (greenhouse pot, spray at 2-3 leaf stage); settings: post-emergence, after 3 weeks, resistant to ALS inhibitor herbicides
Summary of the method: (§1)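 Activity graded levels 0-5 by fresh-weight inhibition (level 5 above 85%, level 0 below 5%), assessed 3 weeks after treatment. Plants grown in greenhouse pots were sprayed post-emergence at 2-3 leaves using acetone/tween-80 solutions with methyl oleate synergist (1.5 L/ha).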

Echinochloa crusgalli = test: as above; settings: for Echinochloa crusgalli, activity level (growth inhibition rate): post-emergence, after 3 weeks, resistant to ALS inhibitor herbicides; for Activity level (growth inhibition rate) Echinochloa crusgalli: 1000 g/ha, post-emergence spray at 2-3 leaf stage, assessed after 3 weeks, fresh weight inhibition rate
Summary of the method: as §1

Japonica rice = test: as above; settings: post-emergence, after 3 weeks
Summary of the method: as §1

Indica rice = test: as above; settings: post-emergence, after 3 weeks
Summary of the method: as §1

Galium spurium = test: as above; settings: 1000 g/ha; post-emergence spray at 2-3 leaf stage; assessed after 3 weeks; fresh weight inhibition rate
Summary of the method: as §1

Abutilon theophrasti = test: as above; settings: 1000 g/ha; post-emergence spray at 2-3 leaf stage; assessed after 3 weeks; fresh weight inhibition rate
Summary of the method: as §1

Digitaria sanguinalis = test: as above; settings: 1000 g/ha; post-emergence spray at 2-3 leaf stage; assessed after 3 weeks; fresh weight inhibition rate
Summary of the method: as §1

Monochoria vaginalis [1] = test: as above; settings: 1000 g/ha; post-emergence spray at 2-3 leaf stage; assessed after 3 weeks; fresh weight inhibition rate
Summary of the method: as §1

Monochoria vaginalis [2] = test: Weed control effect evaluation in rice field soil pot; settings: paddy pot, 14 days after treatment, resistant to pyrazosulfuron-ethyl and penoxsulam
Description: (§2) The activity level standard of harmful plants destruction (i. e. growth inhibition rate) is as follows: • Level 5: the growth inhibition rate is greater than 85%; • Level 4: the growth inhibition rate is equal to or greater than 60% and less than 85%; • Level 3: the growth inhibition rate is equal to or greater than 40% and less than 60%; • Level 2: the growth inhibition rate is equal to or greater than 20% and less than 40%; • Level 1: the growth inhibition rate is equal to or greater than 5% and less than 20%; • Level 0: the growth inhibition rate is less than 5%;
(§3) Transplanted rice safety evaluation and weed control effect evaluation in rice field:
Rice field soil was loaded into a 1/1,000,000 ha pot. The seeds of Monochoria vaginalis were sowed and gently covered with soil, then left to stand still in greenhouse in the state of 0.5-1 cm of water storage. It was kept at 3-4 cm of water storage thereafter. The weeds were treated by dripping the WP or SC water diluents prepared according to the common preparation method of the compounds of the present invention with pipette homogeneously to achieve specified effective amount when Monochoria vaginalis reached 0.5 leaf stage.
(§4) The fertility condition of Monochoria vaginalis 14 days and rice 21 days after the treatment of the compound of the invention with the naked eye.

rice (japonica rice) = test: Transplanted rice safety evaluation in rice field soil pot; settings: 1000 g/ha, 21 days after treatment
Description: as §2, §3
In addition, the rice field soil that loaded into the 1/1,000,000 ha pot was leveled to keep water storage at 3-4 cm depth. The 3-leaf stage rice (japonica rice) was transplanted at 3 cm of transplanting depth the next day. The compound of the present invention was treated by the same way after 5 days of transplantation.
as §4

Question: `COc1cc(OC)nc(Oc2cccc(Oc3nc(OC)cc(OC)n3)c2C(=O)O)n1` [Bispyribac-sodium, reference compound] was tested. Which “Cyperus iria, activity level (growth inhibition rate)” value (Cyperus iria; 100 g/ha) did it give?
Answer: 2 (Level 2: the growth inhibition rate is equal to or greater than 20% and less than 40%)

Question: And the “Echinochloa crusgalli, activity level (growth inhibition rate)” value (Echinochloa crusgalli; 100 g/ha)?
Answer: 1 (Level 1: the growth inhibition rate is equal to or greater than 5% and less than 20%)

Question: And the “Japonica rice, activity level (growth inhibition rate)” value (Japonica rice; 100 g/ha)?
Answer: 4 (Level 4: the growth inhibition rate is equal to or greater than 60% and less than 85%)

Question: What about the “Indica rice, activity level (growth inhibition rate)” value (Indica rice; 100 g/ha) of the same compound?
Answer: 2 (Level 2: the growth inhibition rate is equal to or greater than 20% and less than 40%)

Question: For `Cc1c(F)nc(OC(C)C(=O)OCc2ccccc2)c(C)c1N` (centres unmarked) [Compound 7], which “Cyperus iria, activity level (growth inhibition rate)” value (Cyperus iria; 600 g/ha, from Hunan) is on record?
Answer: 5 (Level 5: the growth inhibition rate is greater than 85%)

Question: What about the “Activity level (growth inhibition rate) Galium spurium” value (Galium spurium) of the same compound?
Answer: 5 (Level 5: the growth inhibition rate is greater than 85%)

Question: And the “Activity level (growth inhibition rate) Abutilon theophrasti” value (Abutilon theophrasti)?
Answer: 5 (Level 5: the growth inhibition rate is greater than 85%)

Question: What about the “Activity level (growth inhibition rate) Digitaria sanguinalis” value (Digitaria sanguinalis) of the same compound?
Answer: 5 (Level 5: the growth inhibition rate is greater than 85%)

Question: What about the “Activity level (growth inhibition rate) Echinochloa crusgalli” value (Echinochloa crusgalli) of the same compound?
Answer: 5 (Level 5: the growth inhibition rate is greater than 85%)

Question: What about the “Echinochloa crusgalli, activity level (growth inhibition rate)” value (Echinochloa crusgalli; 600 g/ha, from Hunan) of the same compound?
Answer: 5 (Level 5: the growth inhibition rate is greater than 85%)

Question: What about the “Japonica rice, activity level (growth inhibition rate)” value (Japonica rice; 600 g/ha) of the same compound?
Answer: 0 (Level 0: the growth inhibition rate is less than 5%)

Question: And the “Activity level (growth inhibition rate) Monochoria Vaginalis” value (Monochoria vaginalis [1])?
Answer: 5 (Level 5: the growth inhibition rate is greater than 85%)

Question: And the “Indica rice, activity level (growth inhibition rate)” value (Indica rice; 600 g/ha)?
Answer: 0 (Level 0: the growth inhibition rate is less than 5%)

Question: And the “Monochoria Vaginalis, activity level” value (Monochoria vaginalis [2]; 1000 g/ha)?
Answer: 5 (Level 5: the growth inhibition rate is greater than 85%)

Question: And the “Rice, safety level” value (rice (japonica rice))?
Answer: 0 (Level 0: the growth inhibition rate is less than 5%)

Question: Which results are given for `CC(Oc1nc(F)c(Br)c(N)c1Br)C(=O)SCc1ccccc1` (centres unmarked) [Compound 12]?
Answer: Cyperus iria, activity level (growth inhibition rate) (Cyperus iria; 600 g/ha, from Hunan): 5 (Level 5: the growth inhibition rate is greater than 85%); Activity level (growth inhibition rate) Galium spurium (Galium spurium): 5 (Level 5: the growth inhibition rate is greater than 85%); Activity level (growth inhibition rate) Abutilon theophrasti (Abutilon theophrasti): 5 (Level 5: the growth inhibition rate is greater than 85%); Activity level (growth inhibition rate) Digitaria sanguinalis (Digitaria sanguinalis): 5 (Level 5: the growth inhibition rate is greater than 85%); Activity level (growth inhibition rate) Echinochloa crusgalli (Echinochloa crusgalli): 5 (Level 5: the growth inhibition rate is greater than 85%); Echinochloa crusgalli, activity level (growth inhibition rate) (Echinochloa crusgalli; 600 g/ha, from Hunan): 5 (Level 5: the growth inhibition rate is greater than 85%); Japonica rice, activity level (growth inhibition rate) (Japonica rice; 600 g/ha): 0 (Level 0: the growth inhibition rate is less than 5%); Activity level (growth inhibition rate) Monochoria Vaginalis (Monochoria vaginalis [1]): 5 (Level 5: the growth inhibition rate is greater than 85%); Indica rice, activity level (growth inhibition rate) (Indica rice; 600 g/ha): 0 (Level 0: the growth inhibition rate is less than 5%); Monochoria Vaginalis, activity level (Monochoria vaginalis [2]; 1000 g/ha): 5 (Level 5: the growth inhibition rate is greater than 85%); Rice, safety level (rice (japonica rice)): 0 (Level 0: the growth inhibition rate is less than 5%)

Question: For `Cc1c(OC(C)C(=O)OCc2ccccc2)nc(F)c(Cl)c1N` (centres unmarked) [Compound 20], which “Cyperus iria, activity level (growth inhibition rate)” value (Cyperus iria; 600 g/ha, from Hunan) is on record?
Answer: 5 (Level 5: the growth inhibition rate is greater than 85%)

Question: And the “Activity level (growth inhibition rate) Galium spurium” value (Galium spurium)?
Answer: 5 (Level 5: the growth inhibition rate is greater than 85%)

Question: And the “Activity level (growth inhibition rate) Abutilon theophrasti” value (Abutilon theophrasti)?
Answer: 5 (Level 5: the growth inhibition rate is greater than 85%)

Question: What about the “Activity level (growth inhibition rate) Digitaria sanguinalis” value (Digitaria sanguinalis) of the same compound?
Answer: 5 (Level 5: the growth inhibition rate is greater than 85%)

Question: What about the “Activity level (growth inhibition rate) Echinochloa crusgalli” value (Echinochloa crusgalli) of the same compound?
Answer: 5 (Level 5: the growth inhibition rate is greater than 85%)

Question: What about the “Echinochloa crusgalli, activity level (growth inhibition rate)” value (Echinochloa crusgalli; 600 g/ha, from Hunan) of the same compound?
Answer: 5 (Level 5: the growth inhibition rate is greater than 85%)

Question: And the “Japonica rice, activity level (growth inhibition rate)” value (Japonica rice; 600 g/ha)?
Answer: 0 (Level 0: the growth inhibition rate is less than 5%)

Question: What about the “Activity level (growth inhibition rate) Monochoria Vaginalis” value (Monochoria vaginalis [1]) of the same compound?
Answer: 5 (Level 5: the growth inhibition rate is greater than 85%)

Question: What about the “Indica rice, activity level (growth inhibition rate)” value (Indica rice; 600 g/ha) of the same compound?
Answer: 0 (Level 0: the growth inhibition rate is less than 5%)

Question: And the “Monochoria Vaginalis, activity level” value (Monochoria vaginalis [2]; 1000 g/ha)?
Answer: 5 (Level 5: the growth inhibition rate is greater than 85%)

Question: What about the “Rice, safety level” value (rice (japonica rice)) of the same compound?
Answer: 0 (Level 0: the growth inhibition rate is less than 5%)

Question: Which results are given for `CC(Oc1nc(F)c(Cl)c(N)c1Cl)C(=O)SCc1ccccc1` (centres unmarked) [Compound 67]?
Answer: Cyperus iria, activity level (growth inhibition rate) (Cyperus iria; 600 g/ha, from Hunan): 5 (Level 5: the growth inhibition rate is greater than 85%); Activity level (growth inhibition rate) Galium spurium (Galium spurium): 5 (Level 5: the growth inhibition rate is greater than 85%); Activity level (growth inhibition rate) Abutilon theophrasti (Abutilon theophrasti): 5 (Level 5: the growth inhibition rate is greater than 85%); Activity level (growth inhibition rate) Digitaria sanguinalis (Digitaria sanguinalis): 5 (Level 5: the growth inhibition rate is greater than 85%); Activity level (growth inhibition rate) Echinochloa crusgalli (Echinochloa crusgalli): 5 (Level 5: the growth inhibition rate is greater than 85%); Echinochloa crusgalli, activity level (growth inhibition rate) (Echinochloa crusgalli; 600 g/ha, from Hunan): 5 (Level 5: the growth inhibition rate is greater than 85%); Japonica rice, activity level (growth inhibition rate) (Japonica rice; 600 g/ha): 0 (Level 0: the growth inhibition rate is less than 5%); Activity level (growth inhibition rate) Monochoria Vaginalis (Monochoria vaginalis [1]): 5 (Level 5: the growth inhibition rate is greater than 85%); Indica rice, activity level (growth inhibition rate) (Indica rice; 600 g/ha): 0 (Level 0: the growth inhibition rate is less than 5%); Monochoria Vaginalis, activity level (Monochoria vaginalis [2]; 1000 g/ha): 5 (Level 5: the growth inhibition rate is greater than 85%); Rice, safety level (rice (japonica rice)): 0 (Level 0: the growth inhibition rate is less than 5%)

Question: For `CC(Oc1nc(F)c(Cl)c(N)c1Cl)C(=O)OCc1ccccc1F` (centres unmarked) [Compound 75], which “Cyperus iria, activity level (growth inhibition rate)” value (Cyperus iria; 600 g/ha, from Hunan) is on record?
Answer: 5 (Level 5: the growth inhibition rate is greater than 85%)

Question: And the “Activity level (growth inhibition rate) Galium spurium” value (Galium spurium)?
Answer: 5 (Level 5: the growth inhibition rate is greater than 85%)

Question: What about the “Activity level (growth inhibition rate) Abutilon theophrasti” value (Abutilon theophrasti) of the same compound?
Answer: 5 (Level 5: the growth inhibition rate is greater than 85%)

Question: And the “Activity level (growth inhibition rate) Digitaria sanguinalis” value (Digitaria sanguinalis)?
Answer: 5 (Level 5: the growth inhibition rate is greater than 85%)

Question: And the “Activity level (growth inhibition rate) Echinochloa crusgalli” value (Echinochloa crusgalli)?
Answer: 5 (Level 5: the growth inhibition rate is greater than 85%)

Question: What about the “Echinochloa crusgalli, activity level (growth inhibition rate)” value (Echinochloa crusgalli; 600 g/ha, from Hunan) of the same compound?
Answer: 5 (Level 5: the growth inhibition rate is greater than 85%)

Question: What about the “Japonica rice, activity level (growth inhibition rate)” value (Japonica rice; 600 g/ha) of the same compound?
Answer: 0 (Level 0: the growth inhibition rate is less than 5%)

Question: What about the “Activity level (growth inhibition rate) Monochoria Vaginalis” value (Monochoria vaginalis [1]) of the same compound?
Answer: 5 (Level 5: the growth inhibition rate is greater than 85%)

Question: What about the “Indica rice, activity level (growth inhibition rate)” value (Indica rice; 600 g/ha) of the same compound?
Answer: 0 (Level 0: the growth inhibition rate is less than 5%)

Question: What about the “Monochoria Vaginalis, activity level” value (Monochoria vaginalis [2]; 1000 g/ha) of the same compound?
Answer: 5 (Level 5: the growth inhibition rate is greater than 85%)

Question: What about the “Rice, safety level” value (rice (japonica rice)) of the same compound?
Answer: 0 (Level 0: the growth inhibition rate is less than 5%)

Question: Which results are given for `CC(Oc1nc(F)c(Cl)c(N)c1Cl)C(=O)SCc1cccc(Cl)c1` (centres unmarked) [Compound 76]?
Answer: Cyperus iria, activity level (growth inhibition rate) (Cyperus iria; 600 g/ha, from Hunan): 5 (Level 5: the growth inhibition rate is greater than 85%); Activity level (growth inhibition rate) Galium spurium (Galium spurium): 5 (Level 5: the growth inhibition rate is greater than 85%); Activity level (growth inhibition rate) Abutilon theophrasti (Abutilon theophrasti): 5 (Level 5: the growth inhibition rate is greater than 85%); Activity level (growth inhibition rate) Digitaria sanguinalis (Digitaria sanguinalis): 5 (Level 5: the growth inhibition rate is greater than 85%); Activity level (growth inhibition rate) Echinochloa crusgalli (Echinochloa crusgalli): 5 (Level 5: the growth inhibition rate is greater than 85%); Echinochloa crusgalli, activity level (growth inhibition rate) (Echinochloa crusgalli; 600 g/ha, from Hunan): 5 (Level 5: the growth inhibition rate is greater than 85%); Japonica rice, activity level (growth inhibition rate) (Japonica rice; 600 g/ha): 0 (Level 0: the growth inhibition rate is less than 5%); Activity level (growth inhibition rate) Monochoria Vaginalis (Monochoria vaginalis [1]): 5 (Level 5: the growth inhibition rate is greater than 85%); Indica rice, activity level (growth inhibition rate) (Indica rice; 600 g/ha): 0 (Level 0: the growth inhibition rate is less than 5%); Monochoria Vaginalis, activity level (Monochoria vaginalis [2]; 1000 g/ha): 5 (Level 5: the growth inhibition rate is greater than 85%); Rice, safety level (rice (japonica rice)): 0 (Level 0: the growth inhibition rate is less than 5%)

Question: How did the “Monochoria Vaginalis, activity level” value (Monochoria vaginalis [2]; 50 g/ha) turn out when `COc1cnc(OC)n2nc(NS(=O)(=O)c3c(OCC(F)F)cccc3C(F)(F)F)nc12` [Penoxsulam, reference compound] was run?
Answer: 1 (Level 1: the growth inhibition rate is equal to or greater than 5% and less than 20%)
